One data set in a line: rat plasma. The following applies: cited from earlier work.
A further data set relates to Recombinant human PREP. Briefly: Recombinant human PREP at pH 7.4 (0.1 M potassium phosphate, 1 mM EDTA and 5 mM DTT). The following applies: up to 1 h.
The subject of the next data set is PRCP. Briefly: in vitro. The following applies: cited from earlier work.
Data set [1] can be described thus: 24 h cellular supernatant of HUVEC (assay medium), in the absence of cells. The following applies: human, 37 °C, up to 1 h.
Data set [2] in a line: HAoEC, 10,000 cells per well, in assay medium; supernatant analysed. The following applies: human, 37 °C, up to 24 h.
A further data set is described as follows: human plasma. The following applies: cited from earlier work.
A further data set can be described thus: mouse plasma. The following applies: cited from earlier work.
In data set [3] the test system is Angiotensin-converting enzyme 2 (ACE2, EC 3.4.17.23). The following applies: cited from earlier work.
The nature of data set [4]: HUVEC, 10,000 cells per well, in assay medium; supernatant analysed. The following applies: human, 37 °C, up to 24 h.
Data set [5] is described as follows: human plasma of healthy volunteers. The following applies: cited from earlier work.

“Also recorded” adds a separate entry of the source.

On to pERPRLSHKGPMPF, for which the cleaved bond entry was “Leu5-Ser6, first_seen; also recorded: Ser6-His7” in the data set “rat plasma”; “P12-Phe13” with PRCP; “P12-Phe13, 1 h” in data set [1]; “P12-Phe13, 8 h; also recorded: Ser6-His7, 8 h” in data set [2]; “Leu5-Ser6, first_seen; also recorded: Ser6-His7” in “human plasma”; “Leu5-Ser6, first_seen; also recorded: Ser6-His7” in the data set “mouse plasma”. Moreover, the cleaved bond entry in [3] is listed as “P12-Phe13”; in data set [4], “P12-Phe13, 24 h”. For the same substance, the not cleaved result was “Only the peaks corresponding with the intact peptides could be observed” with Recombinant human PREP and “In HUVEC, this product could not be detected” in [4]. Besides, the fragment found result in data set [5] is recorded as “(pyr)-apelin-13(1-6)”.
